# Assay results published in US8546608B2, “Proteasome inhibitors and methods of using the same” (Cephalon, Inc., priority 2003, dated 2013).
# pEC50, pIC50: −log10 of the molar value.
# Experiments:
# [1] = molecular target: T1, 20S Human Erythrocyte Proteasome (HEP) (Homo sapiens, UniProt P20618+P28074); experiment: Chymotrypsin-like activity of 20S Human Erythrocyte Proteasome (HEP), IC50 determination; type: biochemical; conditions: assay of Example C, inhibition of HEP
# T1 construct: 20S Human Erythrocyte Proteasome (HEP), purchased from Immatics Biotechnologies Inc; purchased Immatics Biotechnologies Inc., Tübingen, Germany; host or cells: human erythrocytes (natural source)
# Method: Assay for Chymotrypsin-like Activity of 20S Human Erythrocyte Proteasome (HEP)
# Proteasome chymotrypsin-like activity of compounds of the invention was assayed according to the following procedure.
# In 96-well microtiter plates, 20S Human Erythrocyte Proteasome (HEP), purchased from Immatics Biotechnologies Inc., Tübingen, Germany was plated at 0.2 μg/mL (about 0.6 nM catalytic sites) in 0.04% SDS 20 mM Tris buffer. A fluorimetric substrate Suc-LLVY-AMC (succinyl-Leu-Leu-Val-Tyr-7-amido-4-methylcoumarin), purchased from Sigma Inc., St. Louis, Mo., USA was added to a final concentration of 100 μM from a stock solution of 10 mM in dimethylsulfoxide. Reaction volumes were 100 μl per well. […] Proteasome activity was determined under conditions in which substrate hydrolysis increased linearly with time and the change in fluorescence signal was proportional to the concentration of free AMC.
# Determination of IC50 Values for HEP and α-Chymotrypsin Inhibitors
# (§1) Inhibition of the chymotrypsin-like activity of HEP and of bovine α-chymotrypsin was determined by incubating the enzyme with various concentrations of putative inhibitors for 15 minutes at 37° C. (or room temperature for α-chymotrypsin) prior to the addition of substrate. Each experimental condition was evaluated in triplicate, and replicate experiments were performed for the inhibitors described herein.
# [2] = molecular target: T2, proteasome in Molt-4 cells (human leukemia) (Homo sapiens, UniProt P20618+P28074); type: cell-based; conditions: assay of Example E, inhibition of MOLT4; read-out: MOLT4 (EC50)
# T2 sequence (P28074 60-263): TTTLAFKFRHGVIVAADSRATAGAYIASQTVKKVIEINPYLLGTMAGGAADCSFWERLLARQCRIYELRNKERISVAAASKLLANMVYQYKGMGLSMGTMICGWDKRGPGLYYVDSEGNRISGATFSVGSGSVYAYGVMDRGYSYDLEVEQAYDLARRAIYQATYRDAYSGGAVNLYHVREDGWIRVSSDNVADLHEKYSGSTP
# T2 sequence (P20618 29-241): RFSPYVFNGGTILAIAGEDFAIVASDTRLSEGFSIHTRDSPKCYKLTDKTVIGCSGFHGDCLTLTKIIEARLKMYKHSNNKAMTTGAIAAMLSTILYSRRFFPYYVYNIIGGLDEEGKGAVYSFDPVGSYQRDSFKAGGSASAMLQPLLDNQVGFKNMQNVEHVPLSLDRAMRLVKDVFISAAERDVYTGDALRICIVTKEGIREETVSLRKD
# Method: Cellular Assay for Chymotrypsin-like activity of Proteasome in Molt-4 Cell Line
# The chymotrypsin-like activity of proteasome in Molt-4 cells (human leukemia) was assayed according to the following procedure. A brief description of the method was published previously (Harding et al., J. Immunol., 1995, 155, 1767).
# Molt-4 cells were washed and resuspended in HEPES-buffered Saline (5.4 mM KCl, 120 mM NaCl, 25 mM Glucose, 1.5 mM MgSO4, 1 mM Na pyruvate, 20 mM Hepes) and plated in 96-well microtiter white plates to a final concentration of 6×10^6 cells/mL. Then various 5× proteasome inhibitor concentrations (or diluted DMSO for controls), prepared from 250×DMSO solutions by diluting 50-fold using HEPES-buffered saline, were added to the plate to a final 1× concentration. After 15 minutes incubation at 37° C., a fluorimetric cell permeable substrate (MeOSuc-FLF-AFC) (methoxysuccinyl-Phe-Leu-Phe-7-amido-4-trifluoromethylcoumarin) purchased from Enzyme Systems Products, catalogue number AFC-88, was added to each well at a final concentration of 25 μM from a stock solution of 20 mM in DMSO. Reaction volumes were 100 μl per well.
# The concentration of free AFC was monitored every 1.5 min for 30 min ([…]) on a Polastar Optima, BMG Labtechnologies microplate reader, using an excitation wavelength of 390 nm and emission wavelength of 520 nm. Proteasome activity was determined under conditions in which substrate hydrolysis increased linearly with time and the change in fluorescent signal was proportional to the concentration of free AFC.
# Determination of EC50 Values for Proteasome Inhibitors in MOLT-4 Cell Line
# as §1, with “of” for “of the”, “proteasome in Molt-4 cells” for “HEP and of bovine α-chymotrypsin”, “cells” for “the enzyme”, “C.” for “C. (or room temperature for α-chymotrypsin)”
Structure (SMILES),pIC50 [1],pEC50 [2]
"CC(C)C[C@H](NC(=O)[C@@H](NC(=O)c1ccc(Oc2ccccc2)cc1)[C@@H](C)O)B(O)O [E.3.7, Boronic acid, [(1R)-1-[[(2S,3R)-3-hydroxy-2-[(4-Phenoxybenzoyl)amino]-1-oxobutyl]amino]-3-methylbutyl]]",> 8.00,> 6.70
"CCCCc1ccc(C(=O)N[C@H](C(=O)N[C@@H](CC(C)C)B(O)O)[C@@H](C)O)nc1 [E.4.2, Boronic acid, [(1R)-1-[[(2S,3R)-3-hydroxy-2-[(5-butyl-pyridine-2-carbonyl)amino]-1-oxobutyl]amino]-3-methylbutyl]]",> 7.00,> 6.70
"CCCCc1ccc(C(=O)N[C@@H](CNC(=O)c2cnccn2)C(=O)N[C@@H](CC(C)C)B(O)O)cc1 [E.5, Boronic Acid, [(1R)-1-[[(2S)-3-(2-pyrazincarbonylamino)-2-[(4-butylbenzoylamino)]-1-oxopropyl]amino]-3-methylbutyl]]",> 8.00,> 6.70
"CC[C@@H](C(=O)N[C@@H](CCCNC(=N)N[N+](=O)[O-])C(=O)N[C@@H](CC(C)C)B(O)O)c1ccccc1 [E.2.4, Boronic acid, [(1R)-1-[[(2S)-5-[[imino(nitroamino)methyl]amino]-2-[((2R)-2-phenylbutanoyl)amino]-1-oxopentyl]amino]-3-methylbutyl]]",> 8.00,< 5.00
CC(C)C[C@H](NC(=O)[C@H](CCCNC(=N)N[N+](=O)[O-])NC(=O)CCCCC1CCCCC1)B1O[C@@H]2C[C@@H]3C[C@@H](C3(C)C)[C@]2(C)O1 [D.3.73],> 8.00,> 6.70
"CCCCCCCCS(=O)(=O)N[C@@H](CCCNC(=N)N[N+](=O)[O-])C(=O)N[C@@H](CC(C)C)B1O[C@@H]2C[C@@H]3C[C@@H](C3(C)C)[C@]2(C)O1 [D.4.4, Octanesulfonamide, N-[(1S)-1-[[[(1R)-1-[(3aS,4S,6S,7aR)-hexahydro-3a,5,5-trimethyl-4,6-methano-1,3,2-benzodioxaborol-2-yl]-3-methylbutyl]amino]carbonyl]-4-[[imino(nitroamino)methyl]amino]butyl]]",> 8.00,> 6.70
CCCCc1ccc(C(=O)N[C@H](CNC(=O)c2ccc(C)cc2)C(=O)N[C@@H](CC(C)C)B(O)O)cc1 [E.5.41],> 7.00,> 6.70
CCCOc1ccc(C(=O)N[C@H](C(=O)N[C@@H](CC(C)C)B(O)O)[C@@H](C)O)cc1 [E.3.8],> 8.00,> 6.70
"CC(C)C[C@H](NC(=O)[C@H](CCCNC(=N)N[N+](=O)[O-])NC(=O)Cc1cccc(Cl)c1)B1O[C@@H]2C[C@@H]3C[C@@H](C3(C)C)[C@]2(C)O1 [D.3.128, 2-(3-Chlorophenyl)acetamide,N-[(1S)-1-[[[(1R)-1-[(3aS,4S,6S,7aR)-hexahydro-3a,5,5-trimethyl-4,6-methano-1,3,2-benzodioxaborol-2-yl]-3-methylbutyl]amino]carbonyl]-4-[[imino(nitroamino)methyl]amino]butyl]]",> 8.00,5.70 to 6.70
"CC(C)C[C@H](NC(=O)[C@@H](NC(=O)c1ccccc1)[C@@H](C)O)B1O[C@@H]2C[C@@H]3C[C@@H](C3(C)C)[C@]2(C)O1 [D.3.174, Benzamide,N-[(1S,2R)-1-[[[(1R)-1-[(3aS,4S,6S,7aR)-hexahydro-3a,5,5-trimethyl-4,6-methano-1,3,2-benzodioxaborol-2-yl]-3-methylbutyl]amino]carbonyl]-2-hydroxypropyl]]",> 7.00,> 6.70
Cc1ccc(OCC(=O)N[C@H](C(=O)N[C@@H](CC(C)C)B(O)O)[C@@H](C)O)cc1 [E.3.2],> 8.00,> 6.70
"CCCCc1ccc(C(=O)N[C@H](C(=O)N[C@@H](CC(C)C)B(O)O)[C@@H](C)O)cc1 [E.3, Boronic Acid, [(1R)-1-[[(2S,3R)-3-hydroxy-2-[(4-butylbenzoyl)amino]-1-oxobutyl]amino]-3-methylbutyl]]",> 8.00,> 6.70

# More lines, now with the values ahead:
pIC50 [1],pEC50 [2],Structure (SMILES)
> 8.00,5.00 to 5.70,"CC(C)C[C@H](NC(=O)[C@H](CCCNC(=N)N[N+](=O)[O-])NC(=O)CCCCCCC(=O)c1ccccc1)B(O)O [E.2.57, Boronic acid, [(1R)-1-[[(2S)-5-[[imino(nitroamino)methyl]amino]-2-[(8-oxo-8-phenyloctanoyl)amino]-1-oxopentyl]amino]-3-methylbutyl]]"
> 8.00,5.00 to 5.70,"CC(C)C[C@H](NC(=O)[C@H](CCCNC(=N)N[N+](=O)[O-])NC(=O)CCCCCCCCCCC#N)B(O)O [D.7.60, Boronic acid, [(1R)-1-[[(2S)-5-[[imino(nitroamino)methyl]amino]-2-[(11-cianoundecanoyl)amino]-1-oxopentyl]amino]-3-methylbutyl]]"
> 8.00,< 5.00,"CC(C)CCCC(=O)N[C@@H](CCCNC(=N)N[N+](=O)[O-])C(=O)N[C@@H](CC(C)C)B(O)O [E.2.26, Boronic acid, [(1R)-1-[[(2S)-5-[[imino(nitroamino)methyl]amino]-2-[(5-methylhexanoyl)amino]-1-oxopentyl]amino]-3-methylbutyl]]"
> 8.00,< 5.00,"CC(C)C[C@H](NC(=O)[C@H](CCCNC(=N)N[N+](=O)[O-])NC(=O)Cc1ccsc1)B(O)O [E.2.62, Boronic acid, [(1R)-1-[[(2S)-5-[[imino(nitroamino)methyl]amino]-2-[(2-thiophen-3-yl-acetyl)amino]-1-oxopentyl]amino]-3-methylbutyl]]"
> 8.00,5.70 to 6.70,"CCCCCCCCCC(=O)N[C@@H](CCCNC(N)=O)C(=O)N[C@@H](CC(C)C)B(O)O [E.1.29, Boronic acid, [(1R)-1-[[(2S)-2-[(decanoyl)amino]-1-oxo-5-ureido-pentyl]amino]-3-methylbutyl]]"
> 8.00,< 5.00,"CC(C)C[C@H](NC(=O)[C@H](CCCNC(=N)N[N+](=O)[O-])NC(=O)CCCOc1ccccc1)B(O)O [E.2.42, Boronic acid, [(1R)-1-[[(2S)-5-[[imino(nitroamino)methyl]amino]-2-[(4-phenoxybutanoyl)amino]-1-oxopentyl]amino]-3-methylbutyl]]"
> 8.00,5.00 to 5.70,"CC(C)C[C@H](NC(=O)[C@H](CCCNC(=N)N[N+](=O)[O-])NC(=O)Cc1ccccc1I)B(O)O [E.2.13, Boronic acid, [(1R)-1-[[(2S)-5-[[imino(nitroamino)methyl]amino]-2-[[2-(2-iodophenyl)acetyl]amino]-1-oxopentyl]amino]-3-methylbutyl]]"
> 8.00,5.70 to 6.70,"CC(C)C[C@H](NC(=O)[C@H](CCCNC(=N)N[N+](=O)[O-])NC(=O)C(CCCCCCCCC#N)C1CCCC1)B(O)O (mixture of isomers) [E.1.19, Boronic acid, [(1R)-1-[[(2S)-5-[[imino(nitroamino)methyl]amino]-2-[((RS)-10-cyano-2-cyclopentydecanoyl)amino]-1-oxopentyl]amino]-3-methylbutyl]]"
